Experimental data taken from US20220323406A1, “METHODS AND COMPOSITIONS FOR DIFFERENTIATING STEM CELLS” (Massachusetts Institute of Technology, priority 2019, published 2022).

Experiments:
[1] = system: ENR+CD organoids (ISC to Paneth cell differentiation); test: Primary screen: basal (non-stimulated) lysozyme secretion LYZ.NS, 2.5-D 384-well ENR+CD organoid differentiation; assay type: cell-based, mouse; conditions: primary screen; for Z.LYZ.NS: standard z score
Source text: (§1) High-throughput screening.

ENR+CD organoids = test: Primary screen: ATP (CellTiter-Glo 3D, CTG) cell number/viability, 2.5-D 384-well ENR+CD organoids; conditions: primary screen; for Z.CTG: standard z score;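 as to all read-outs here: compounds given at plating and again on day 3 over a 6-day differentiation from ENR+CV stem-cell-enriched precursors, ATP measured on day 6, plate median as control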
[2] = system: ENR+CD organoids (ISC to Paneth cell differentiation); test: Primary screen: CCh-stimulated lysozyme secretion LYZ.S, 2.5-D 384-well ENR+CD organoid differentiation; assay type: cell-based, mouse; conditions: primary screen
Source text: as §1

SMILES	Dose.FC.LYZ.NS (log2 fold change) ([1]; dose 0.08 uM)	Z.LYZ.NS (standard z score) ([1]; dose 0.08 uM)	Dose.FC.LYZ.NS (log2 fold change) ([1]; dose 0.40 uM)	Z.LYZ.NS (standard z score) ([1]; dose 0.40 uM)	Dose.FC.LYZ.NS (log2 fold change) ([1]; dose 2.00 uM)	Z.LYZ.NS (standard z score) ([1]; dose 2.00 uM)	Dose.FC.LYZ.NS (log2 fold change) ([1]; dose 10.00 uM)	Z.LYZ.NS (standard z score) ([1]; dose 10.00 uM)	Dose.FC.CTG (log2 fold change) (ENR+CD organoids; dose 0.08 uM)	Z.CTG (standard z score) (ENR+CD organoids; dose 0.08 uM)	Dose.FC.CTG (log2 fold change) (ENR+CD organoids; dose 0.40 uM)	Z.CTG (standard z score) (ENR+CD organoids; dose 0.40 uM)	Dose.FC.CTG (log2 fold change) (ENR+CD organoids; dose 2.00 uM)	Z.CTG (standard z score) (ENR+CD organoids; dose 2.00 uM)	Dose.FC.CTG (log2 fold change) (ENR+CD organoids; dose 10.00 uM)	Z.CTG (standard z score) (ENR+CD organoids; dose 10.00 uM)	Dose.FC.LYZ.S (log2 fold change) ([2]; dose 0.08 uM)	Dose.FC.LYZ.S (log2 fold change) ([2]; dose 0.40 uM)	Dose.FC.LYZ.S (log2 fold change) ([2]; dose 2.00 uM)	Dose.FC.LYZ.S (log2 fold change) ([2]; dose 10.00 uM)	further results
CC(C)c1onc(-c2c(Cl)cccc2Cl)c1COc1ccc(/C=C/c2cccc(C(=O)O)c2)c(Cl)c1 [GW4064]	0.170	1.476	−0.022	−0.194	0.022	0.196	−0.059	−0.516	−0.134	−0.320	0.140	0.334	−0.145	−0.346	−0.157	−0.375	0.028	0.097	0.000	−0.071	
O=C(O)CCc1ccc(NCc2cccc(Oc3ccccc3)c2)cc1 [GW9508]	0.075	0.650	0.019	0.169	−0.011	−0.092	−0.040	−0.350	0.063	0.151	0.174	0.417	−0.001	−0.003	−0.059	−0.140	0.067	0.049	0.000	−0.045	
O=C(Nc1ccccc1)c1cc([N+](=O)[O-])ccc1Cl [GW9662]	0.035	0.305	0.098	0.852	0.046	0.400	0.030	0.264	0.115	0.274	0.041	0.098	0.212	0.508	0.133	0.318	0.036	0.080	0.093	0.020	
Cn1cc(/C=C2\C(=O)Nc3cccnc32)c2ccccc21 [GW441756]	0.046	0.399	0.061	0.529	0.117	1.023	0.088	0.763	0.048	0.114	−0.105	−0.252	0.152	0.364	−0.113	−0.270	0.075	0.196	0.125	0.071	
CC(C)c1cc(-c2n[nH]c(=O)n2-c2ccc3c(ccn3C)c2)c(O)cc1O [Ganetespib (STA-9090)]																					Dose.FC.LYZ.NS ([1]; dose 0.08 uM): −0.141 log2 fold change; Dose.FC.LYZ.NS ([1]; dose 0.40 uM): −0.155 log2 fold change; Dose.FC.LYZ.NS ([1]; dose 2.00 uM): −0.150 log2 fold change; Dose.FC.LYZ.NS ([1]; dose 10.00 uM): −0.136 log2 fold change; Z.LYZ.NS ([1]; dose 0.08 uM): −1.226; Z.LYZ.NS ([1]; dose 0.40 uM): −1.345; Z.LYZ.NS ([1]; dose 2.00 uM): −1.309; Z.LYZ.NS ([1]; dose 10.00 uM): −1.181; Dose.FC.CTG (ENR+CD organoids; dose 0.08 uM): −1.450 log2 fold change; Dose.FC.CTG (ENR+CD organoids; dose 0.40 uM): −2.105 log2 fold change; Dose.FC.CTG (ENR+CD organoids; dose 2.00 uM): −1.721 log2 fold change; Dose.FC.CTG (ENR+CD organoids; dose 10.00 uM): −1.620 log2 fold change; Z.CTG (ENR+CD organoids; dose 0.08 uM): −3.465; Z.CTG (ENR+CD organoids; dose 0.40 uM): −5.027; Z.CTG (ENR+CD organoids; dose 2.00 uM): −4.110; Z.CTG (ENR+CD organoids; dose 10.00 uM): −3.871; Dose.FC.LYZ.S ([2]; dose 0.08 uM): −0.260 log2 fold change; Dose.FC.LYZ.S ([2]; dose 0.40 uM): −0.250 log2 fold change; Dose.FC.LYZ.S ([2]; dose 2.00 uM): −0.260 log2 fold change; Dose.FC.LYZ.S ([2]; dose 10.00 uM): −0.267 log2 fold change
C[C@@H]1C(=O)O[C@H]2C[C@@]34[C@H]5C[C@@H](C(C)(C)C)[C@]36[C@@H](OC(=O)[C@@H]6O)O[C@@]4(C(=O)O5)[C@]21O [Ginkgolide A]																					Dose.FC.LYZ.NS ([1]; dose 0.08 uM): 0.045 log2 fold change; Dose.FC.LYZ.NS ([1]; dose 0.40 uM): 0.025 log2 fold change; Dose.FC.LYZ.NS ([1]; dose 2.00 uM): 0.030 log2 fold change; Dose.FC.LYZ.NS ([1]; dose 10.00 uM): 0.052 log2 fold change; Z.LYZ.NS ([1]; dose 0.08 uM): 0.395; Z.LYZ.NS ([1]; dose 0.40 uM): 0.222; Z.LYZ.NS ([1]; dose 2.00 uM): 0.258; Z.LYZ.NS ([1]; dose 10.00 uM): 0.450; Dose.FC.CTG (ENR+CD organoids; dose 0.08 uM): 0.005 log2 fold change; Dose.FC.CTG (ENR+CD organoids; dose 0.40 uM): −0.017 log2 fold change; Dose.FC.CTG (ENR+CD organoids; dose 2.00 uM): 0.040 log2 fold change; Dose.FC.CTG (ENR+CD organoids; dose 10.00 uM): −0.012 log2 fold change; Z.CTG (ENR+CD organoids; dose 0.08 uM): 0.011; Z.CTG (ENR+CD organoids; dose 0.40 uM): −0.040; Z.CTG (ENR+CD organoids; dose 2.00 uM): 0.095; Z.CTG (ENR+CD organoids; dose 10.00 uM): −0.028; Dose.FC.LYZ.S ([2]; dose 0.08 uM): 0.124 log2 fold change; Dose.FC.LYZ.S ([2]; dose 0.40 uM): 0.161 log2 fold change; Dose.FC.LYZ.S ([2]; dose 2.00 uM): 0.002 log2 fold change; Dose.FC.LYZ.S ([2]; dose 10.00 uM): −0.028 log2 fold change
CC1C(=O)OC2C(O)C34C5CC(C(C)(C)C)C36C(OC(=O)C6O)OC4(C(=O)O5)C12O (stereo not drawn) [Ginkgolide B]																					Dose.FC.LYZ.NS ([1]; dose 0.08 uM): 0.041 log2 fold change; Dose.FC.LYZ.NS ([1]; dose 0.40 uM): 0.109 log2 fold change; Dose.FC.LYZ.NS ([1]; dose 2.00 uM): 0.061 log2 fold change; Dose.FC.LYZ.NS ([1]; dose 10.00 uM): −0.037 log2 fold change; Z.LYZ.NS ([1]; dose 0.08 uM): 0.353; Z.LYZ.NS ([1]; dose 0.40 uM): 0.950; Z.LYZ.NS ([1]; dose 2.00 uM): 0.528; Z.LYZ.NS ([1]; dose 10.00 uM): −0.326; Dose.FC.CTG (ENR+CD organoids; dose 0.08 uM): −0.076 log2 fold change; Dose.FC.CTG (ENR+CD organoids; dose 0.40 uM): 0.034 log2 fold change; Dose.FC.CTG (ENR+CD organoids; dose 2.00 uM): −0.154 log2 fold change; Dose.FC.CTG (ENR+CD organoids; dose 10.00 uM): 0.177 log2 fold change; Z.CTG (ENR+CD organoids; dose 0.08 uM): −0.182; Z.CTG (ENR+CD organoids; dose 0.40 uM): 0.081; Z.CTG (ENR+CD organoids; dose 2.00 uM): −0.369; Z.CTG (ENR+CD organoids; dose 10.00 uM): 0.422; Dose.FC.LYZ.S ([2]; dose 0.08 uM): 0.034 log2 fold change; Dose.FC.LYZ.S ([2]; dose 0.40 uM): 0.047 log2 fold change; Dose.FC.LYZ.S ([2]; dose 2.00 uM): 0.033 log2 fold change; Dose.FC.LYZ.S ([2]; dose 10.00 uM): −0.035 log2 fold change
Cc1ccc(S(=O)(=O)NC(=O)NN2CC3CCCC3C2)cc1 (stereo not drawn) [Gliclazide]							−0.035	−0.303							−0.092					−0.060	Dose.FC.LYZ.NS ([1]; dose 0.08 uM): 0.036 log2 fold change; Dose.FC.LYZ.NS ([1]; dose 0.40 uM): 0.032 log2 fold change; Dose.FC.LYZ.NS ([1]; dose 2.00 uM): 0.104 log2 fold change; Z.LYZ.NS ([1]; dose 0.08 uM): 0.313; Z.LYZ.NS ([1]; dose 0.40 uM): 0.278; Z.LYZ.NS ([1]; dose 2.00 uM): 0.909; Dose.FC.CTG (ENR+CD organoids; dose 0.08 uM): 0.162 log2 fold change; Dose.FC.CTG (ENR+CD organoids; dose 0.40 uM): 0.054 log2 fold change; Dose.FC.CTG (ENR+CD organoids; dose 2.00 uM): 0.008 log2 fold change; Dose.FC.LYZ.S ([2]; dose 0.08 uM): 0.058 log2 fold change; Dose.FC.LYZ.S ([2]; dose 0.40 uM): 0.086 log2 fold change; Dose.FC.LYZ.S ([2]; dose 2.00 uM): −0.017 log2 fold change
